Results on 27 compounds are retold here after patent US20070021419A1, “2-Aminophenyl-4-phenylpyrimidines as kinase inhibitors” (Cyclacel Limited, priority 2003, published 2007).

One experiment relates to HT29. The experiment is described as follows: 72-h MTT cytotoxicity assay, HT29. The class given is cell-based. Particulars: Homo sapiens, HT-29, read-out: 72-h MTT IC50 HT29, HT29 cell line. As to the method:
(§1) The compounds from the examples above were subjected to a standard cellular proliferation assay using human tumour cell lines obtained from the ATCC (American Type Culture Collection, 10801 University Boulevard, Manessas, Va. 20110-2209, USA). Standard 72-h MTT (thiazolyl blue; 3-[4,5-dimethylthiazol-2-yl]-2,5-diphenyltetrazolium bromide) assays were performed. In short: cells were seeded into 96-well plates according to doubling time and incubated overnight at 37° C. Test compounds were made up in DMSO and a 1/3 dilution series prepared in 100 μL cell media, added to cells (in triplicates) and incubated for 72 ho at 37° C. MTT was made up as a stock of 5 mg/mL in cell media and filter-sterilised. Media was removed from cells followed by a wash with 200 μL PBS. MTT solution was then added at 20 μL per well and incubated in the dark at 37° C. for 4 h. MTT solution was removed and cells again washed with 200 μL PBS. MTT dye was solubilised with 200 μL per well of DMSO with agitation.
(In general: Tetrazolium assays rely on reduction of a dye to a coloured formazan, in cell work by metabolically active cells.)

In another experiment the target is CDK9/cyclin T1 (Homo sapiens, UniProt P50750). The experiment is described as follows: Kinase assay, radioactive phosphate incorporation, CDK9/cyclin T1. Particulars: 100 μM ATP, 30° C.; read-out: Kinase inhibition IC50 CDK9/cyclin T1. The class given is biochemical. As to the method: (§2) The compounds from the examples above were investigated for their ability to inhibit the enzymatic activity of various protein kinases. This was achieved by measurement of incorporation of radioactive phosphate from ATP into appropriate polypeptide substrates. Recombinant protein kinases and kinase complexes were produced or obtained commercially. Assays were performed using 96-well plates and appropriate assay buffers (typically 25 mM β-glycerophosphate, 20 mM MOPS, 5 MM EGTA, 1 mM DTT, 1 mM Na3VO3, pH 7.4), into which were added 2-4 μg of active enzyme with appropriate substrates. The reactions were initiated by addition of Mg/ATP mix (15 mM MgCl2+100 μM ATP with 30-50 kBq per well of [γ-^32P]-ATP) and mixtures incubated as required at 30° C. Reactions were stopped on ice, followed by filtration through p81 filterplates or GF/C filterplates (Whatman Polyfiltronics, Kent, UK). After washing 3 times with 75 mM aq orthophosphoric acid, plates were dried, scintillant added and incorporated radioactivity measured in a scintillation counter (TopCount, Packard Instruments, Pangbourne, Berks, UK). Compounds for kinase assay were made up as 10 mM stocks in DMSO and diluted into 10% DMSO in assay buffer.
Sequence of CDK9/cyclin T1 (P50750 whole entry, species assumed): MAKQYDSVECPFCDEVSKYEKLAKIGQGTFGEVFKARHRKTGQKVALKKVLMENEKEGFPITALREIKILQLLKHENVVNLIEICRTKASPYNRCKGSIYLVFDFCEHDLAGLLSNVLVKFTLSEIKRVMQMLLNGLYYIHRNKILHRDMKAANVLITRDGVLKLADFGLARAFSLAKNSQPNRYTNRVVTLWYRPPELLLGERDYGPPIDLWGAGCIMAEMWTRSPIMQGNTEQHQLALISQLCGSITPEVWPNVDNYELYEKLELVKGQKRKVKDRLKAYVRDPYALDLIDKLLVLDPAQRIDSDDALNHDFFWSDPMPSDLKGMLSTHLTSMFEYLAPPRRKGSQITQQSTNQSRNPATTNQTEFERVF
Sequence of CDK9/cyclin T1 (O60563 whole entry partner, species assumed): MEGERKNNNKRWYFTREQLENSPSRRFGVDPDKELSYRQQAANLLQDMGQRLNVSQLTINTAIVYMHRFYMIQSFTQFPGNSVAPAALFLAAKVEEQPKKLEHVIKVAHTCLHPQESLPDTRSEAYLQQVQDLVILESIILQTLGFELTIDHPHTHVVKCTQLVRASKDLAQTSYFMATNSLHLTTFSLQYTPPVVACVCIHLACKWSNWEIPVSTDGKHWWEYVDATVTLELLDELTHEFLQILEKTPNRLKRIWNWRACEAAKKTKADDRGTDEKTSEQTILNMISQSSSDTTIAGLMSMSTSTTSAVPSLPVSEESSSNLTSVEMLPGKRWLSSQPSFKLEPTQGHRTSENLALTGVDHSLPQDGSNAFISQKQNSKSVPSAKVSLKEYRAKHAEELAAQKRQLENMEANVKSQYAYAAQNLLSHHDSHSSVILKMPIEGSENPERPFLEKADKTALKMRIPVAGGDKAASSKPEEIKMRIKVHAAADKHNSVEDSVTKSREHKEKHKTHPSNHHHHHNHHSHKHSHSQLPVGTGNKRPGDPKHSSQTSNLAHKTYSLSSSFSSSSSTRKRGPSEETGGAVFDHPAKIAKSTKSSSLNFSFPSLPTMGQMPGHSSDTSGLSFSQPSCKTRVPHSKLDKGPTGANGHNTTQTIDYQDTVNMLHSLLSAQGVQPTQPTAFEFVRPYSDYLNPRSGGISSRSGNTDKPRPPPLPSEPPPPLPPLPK

Another experiment concerns A549. Nature of the experiment: 72-h MTT cytotoxicity assay, A549. Particulars: Homo sapiens, read-out: 72-h MTT IC50 A549, A549 cell line. The class given is cell-based. As to the method: as §1
A further experiment has as its system Saos-2. The experiment is described as follows: 72-h MTT cytotoxicity assay, Saos-2. Type of experiment: cell-based. The conditions noted are these: Homo sapiens, read-out: 72-h MTT IC50 Saos-2, Saos-2 cell line. As to the method:
as §1

Experiment [1] concerns transformed human cell lines (A549, HT29, Saos-2). The experiment is described as follows: 72-h MTT cytotoxicity assay, average of cell lines. Particulars: read-out: 72-h MTT IC50 Average, average of A549, HT29, Saos-2. The class given is cell-based. The protocol:
as §1

In the next experiment the target is CDK2/cyclin E (Homo sapiens, UniProt P24941). Nature of the experiment: Kinase assay, radioactive phosphate incorporation, CDK2/cyclin E. Particulars: 100 μM ATP, 30° C.; read-out: Kinase inhibition IC50 CDK2/cyclin E. Type of experiment: biochemical. The protocol: as §2
For a further experiment, the target named is GSK3β (Homo sapiens, UniProt P49841). The experiment is described as follows: Kinase assay, radioactive phosphate incorporation, GSK3β. The class given is biochemical. Particulars: 100 μM ATP, 30° C.; read-out: Kinase inhibition IC50 GSK3β. As to the method: as §2
Sequence of GSK3β (P49841 whole entry, species assumed): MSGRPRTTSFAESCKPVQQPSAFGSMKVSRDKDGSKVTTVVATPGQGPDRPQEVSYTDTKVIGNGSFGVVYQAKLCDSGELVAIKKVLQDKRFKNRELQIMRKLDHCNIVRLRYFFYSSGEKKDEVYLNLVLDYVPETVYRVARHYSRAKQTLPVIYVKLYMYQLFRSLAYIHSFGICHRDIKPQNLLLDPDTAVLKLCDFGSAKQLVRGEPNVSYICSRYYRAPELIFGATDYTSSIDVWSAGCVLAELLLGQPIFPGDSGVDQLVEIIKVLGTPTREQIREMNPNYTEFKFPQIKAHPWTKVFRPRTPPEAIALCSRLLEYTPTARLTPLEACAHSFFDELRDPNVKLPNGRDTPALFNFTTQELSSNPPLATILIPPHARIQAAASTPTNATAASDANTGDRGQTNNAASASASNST
For another experiment, the target named is CDK7/cyclin H (Homo sapiens, UniProt P50613). Nature of the experiment: Kinase assay, radioactive phosphate incorporation, CDK7/cyclin H. The conditions noted are these: 100 μM ATP, 30° C.; read-out: Kinase inhibition IC50 CDK7/cyclin H. Type of experiment: biochemical. As to the method:
as §2

SMILES strings stand for the structures.

Sequence of CDK7/cyclin H (P50613 whole entry, species assumed): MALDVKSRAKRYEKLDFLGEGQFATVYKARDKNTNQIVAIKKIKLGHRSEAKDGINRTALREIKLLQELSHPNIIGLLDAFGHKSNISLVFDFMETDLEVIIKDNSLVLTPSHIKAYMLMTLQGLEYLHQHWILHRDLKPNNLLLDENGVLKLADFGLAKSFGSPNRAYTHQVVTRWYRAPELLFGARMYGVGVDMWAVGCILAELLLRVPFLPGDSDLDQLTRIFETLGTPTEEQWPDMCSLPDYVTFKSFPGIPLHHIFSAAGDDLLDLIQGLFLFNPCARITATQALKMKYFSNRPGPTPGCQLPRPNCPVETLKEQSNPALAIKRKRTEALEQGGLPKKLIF
Sequence of CDK7/cyclin H (P51946 whole entry partner, species assumed): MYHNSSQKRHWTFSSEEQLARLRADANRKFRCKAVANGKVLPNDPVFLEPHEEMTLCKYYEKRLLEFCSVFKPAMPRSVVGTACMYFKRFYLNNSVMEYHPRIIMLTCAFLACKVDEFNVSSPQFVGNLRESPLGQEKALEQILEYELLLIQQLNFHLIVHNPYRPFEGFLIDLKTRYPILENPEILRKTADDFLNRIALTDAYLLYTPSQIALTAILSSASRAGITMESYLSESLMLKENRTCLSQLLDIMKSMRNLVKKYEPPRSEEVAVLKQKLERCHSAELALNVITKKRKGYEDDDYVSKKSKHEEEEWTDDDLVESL

For the compound `COCCOc1ccc(Nc2nccc(-c3cccc(N)c3)n2)cc1` [Compound 3, [4-(3-Amino-phenyl)-pyrimidin-2-yl]-[4-(2-methoxy-ethoxy)-phenyl]-amine], the IC50 is 3.6 µM in the experiment on HT29; 0.018 µM at CDK9/cyclin T1; 1.8 µM with A549; 5.2 µM with Saos-2; 3.5 ± 1.7 µM in experiment [1].

For the compound `CC(=O)N(C)c1cccc(-c2ccnc(Nc3ccc(O)cc3)n2)c1` [Compound 12, N-{3-[2-(4-Hydroxy-phenylamino)-pyrimidin-4-yl]-phenyl}-N-methyl-acetamide], the IC50 at CDK2/cyclin E turned out to be 0.24 µM.

Take `Nc1cccc(-c2ccnc(Nc3cccc([N+](=O)[O-])c3)n2)c1` [Compound 19, [4-(3-Amino-phenyl)-pyrimidin-2-yl]-(3-nitro-phenyl)-amine]: the IC50 at GSK3β is 0.055 µM; on CDK7/cyclin H, 2.5 µM.

Turning to `Oc1cccc(Nc2nccc(-c3ccc(Cl)c(Cl)c3)n2)c1` [Compound 22, 3-[4-(3,4-Dichloro-phenyl)-pyrimidin-2-ylamino]-phenol], the IC50 in the experiment on HT29 came to 85.2 µM; with A549 it was 43.5 µM; in the experiment with Saos-2, 100 µM; in experiment [1] it was 76.2 ± 29.3 µM.

Turning to `CCN(C(C)=O)c1cccc(-c2ccnc(Nc3ccc([N+](=O)[O-])cc3)n2)c1` [Compound 24, N-Ethyl-N-{3-[2-(4-nitro-phenylamino)-pyrimidin-4-yl]-phenyl}-acetamide], the IC50 in the experiment on HT29 was 7.8 µM; in the experiment with A549, 100 µM; in the experiment with Saos-2, 80.4 µM; in experiment [1], 62.7 ± 48.6 µM.

As to `O=[N+]([O-])c1cccc(Nc2nccc(-c3ccc(Cl)c(Cl)c3)n2)c1` [Compound 31, [4-(3,4-Dichloro-phenyl)-pyrimidin-2-yl]-(3-nitro-phenyl)-amine], the IC50 on GSK3β was determined as 4.5 µM.

For the compound `O=[N+]([O-])c1ccc(Nc2nccc(-c3cccc(Cn4cncn4)c3)n2)cc1` [Compound 41, (4-Nitro-phenyl)-[4-(3-[1,2,4]triazol-1-ylmethyl-phenyl)-pyrimidin-2-yl]-amine], the IC50 at CDK9/cyclin T1 was found to be 0.92 µM; on GSK3β it was 0.043 µM; at CDK2/cyclin E it was 0.42 µM; on CDK7/cyclin H, 5.5 µM.

`COc1ccc(Nc2nccc(-c3ccc(Cl)c(Cl)c3)n2)cn1` [Compound 49, [4-(3,4-Dichloro-phenyl)-pyrimidin-2-yl]-(6-methoxy-pyridin-3-yl)-amine]: the IC50 at GSK3β was 5.2 µM.

Turning to `O=[N+]([O-])c1cccc(Nc2nccc(-c3cccc(O)c3)n2)c1` [Compound 55, 3-[2-(3-Nitro-phenylamino)-pyrimidin-4-yl]-phenol], the IC50 on CDK9/cyclin T1 worked out at 0.03 µM; at GSK3β, 0.003 µM; at CDK2/cyclin E it was 0.04 µM; on CDK7/cyclin H, 0.31 µM.

`Oc1cccc(Nc2nccc(-c3cccc(O)c3)n2)c1` [Compound 56]: the IC50 is 0.07 µM at CDK9/cyclin T1, 0.07 µM on GSK3β, 0.24 µM at CDK2/cyclin E and 2.1 µM on CDK7/cyclin H.

Turning to `Oc1cccc(-c2ccnc(Nc3cccc(F)c3)n2)c1` [Compound 57, 3-[2-(3-Fluoro-phenylamino)-pyrimidin-4-yl]-phenol], the IC50 at CDK9/cyclin T1 came to 0.18 µM; at GSK3β it was 0.054 µM; on CDK2/cyclin E it was 0.21 µM; on CDK7/cyclin H it was 1.3 µM.

Take `CC(=O)Nc1cccc(-c2ccnc(Nc3cccc(CO)c3)n2)c1` [Compound 60, N-{3-[2-(3-Hydroxymethyl-phenylamino)-pyrimidin-4-yl]-phenyl}-acetamide]: the IC50 at CDK9/cyclin T1 worked out at 0.26 µM; at GSK3β it was 0.51 µM; on CDK2/cyclin E, 1.6 µM; on CDK7/cyclin H it was 3.8 µM.

As for `Cc1ccc(C)c(-c2ccnc(Nc3cccc([N+](=O)[O-])c3)n2)c1` [Compound 61, [4-(2,5-Dimethyl-phenyl)-pyrimidin-2-yl]-(3-nitro-phenyl)-amine], the results for the IC50 at GSK3β and on CDK2/cyclin E were 0.57 µM and 1.3 µM, respectively.

Consider `Cc1ccc(C)c(-c2ccnc(Nc3cccc(O)c3)n2)c1` [Compound 62, 3-[4-(2,5-Dimethyl-phenyl)-pyrimidin-2-ylamino]-phenol], for which the IC50 at CDK2/cyclin E is 1.8 µM.

Turning to `O=[N+]([O-])c1cccc(-c2ccnc(Nc3cccc(O)c3)n2)c1` [Compound 64, 3-[4-(3-Nitro-phenyl)-pyrimidin-2-ylamino]-phenol], the values for the IC50 on GSK3β and on CDK2/cyclin E were 0.06 µM and 0.7 µM, respectively.

Consider `CC(=O)Nc1cccc(-c2ccnc(Nc3ccccc3)n2)c1` [Compound 66, N-[3-(2-Phenylamino-pyrimidin-4-yl)-phenyl]-acetamide], for which the IC50 stood at 0.63 µM at GSK3β and 2.8 µM at CDK2/cyclin E.

As to `CC(=O)Nc1cccc(-c2ccnc(Nc3cccc(O)c3)n2)c1` [Compound 67, N-{3-[2-(3-Hydroxy-phenylamino)-pyrimidin-4-yl]-phenyl}-acetamide], the IC50 was 0.16 µM at CDK9/cyclin T1, 0.15 µM at GSK3β, 0.78 µM on CDK2/cyclin E and 4.4 µM at CDK7/cyclin H.

As to `COc1cc(Nc2nccc(-c3cccc(NC(C)=O)c3)n2)cc(OC)c1` [Compound 68, N-{3-[2-(3,5-Dimethoxy-phenylamino)-pyrimidin-4-yl]-phenyl}-acetamide], the IC50 on CDK2/cyclin E is 2.7 µM.

Take `CC(=O)Nc1cccc(-c2ccnc(Nc3cccc([N+](=O)[O-])c3)n2)c1` [Compound 69, N-{3-[2-(3-Nitro-phenylamino)-pyrimidin-4-yl]-phenyl}-acetamide]: the IC50 on CDK9/cyclin T1 worked out at 0.04 µM; on GSK3β, 0.14 µM; on CDK2/cyclin E it was 0.31 µM; on CDK7/cyclin H, 0.55 µM.

`COc1ccc(Nc2nccc(-c3cccc(O)c3)n2)cn1` [Compound 74, 3-[2-(6-Methoxy-pyridin-3-ylamino)-pyrimidin-4-yl]-phenol]: the IC50 came to 0.05 µM at GSK3β and 3.8 µM on CDK7/cyclin H.

As to `CC(=O)N(Cc1cccc(-c2ccnc(Nc3cccc([N+](=O)[O-])c3)n2)c1)C(C)C` [Compound 78, N-Isopropyl-N-{3-[2-(3-nitro-phenylamino)-pyrimidin-4-yl]-benzyl}-acetamide], the IC50 turned out to be 0.96 µM with HT29, 3.7 µM with A549, 5.4 µM in the experiment with Saos-2 and 3.4 ± 2.2 µM in experiment [1].

Take `COc1cccc(-c2ccnc(Nc3cccc([N+](=O)[O-])c3)n2)c1` [Compound 87, [4-(3-Methoxy-phenyl)-pyrimidin-2-yl]-(3-nitro-phenyl)-amine]: the IC50 stood at 0.003 µM on CDK9/cyclin T1 and 0.07 µM at GSK3β.

As for `O=[N+]([O-])c1cccc(Nc2nccc(-c3cccc(C(F)(F)F)c3)n2)c1` [Compound 97, (3-Nitro-phenyl)-[4-(3-trifluoromethyl-phenyl)-pyrimidin-2-yl]-amine], the IC50 at CDK9/cyclin T1 stood at 0.16 µM; at GSK3β, 0.27 µM.

As for `OCC1CCCCN1Cc1cccc(-c2ccnc(Nc3ccc(O)cc3)n2)c1` (centres unmarked) [Compound 106, 4-{4-[3-(2-Hydroxymethyl-piperidin-1-ylmethyl)-phenyl]-pyrimidin-2-ylamino}-phenol], the IC50 at CDK9/cyclin T1 was 0.19 µM; on CDK7/cyclin H, 1.7 µM.

Turning to `OCc1cc(CO)cc(Nc2nccc(-c3cccc(CN4CCCCC4CO)c3)n2)c1` (centres unmarked) [Compound 107, (1-{3-[2-(3,5-Bis-hydroxymethyl-phenylamino)-pyrimidin-4-yl]-benzyl}-piperidin-2-yl)-methanol], the IC50 at CDK9/cyclin T1 was 0.65 µM; at CDK7/cyclin H it was 1.4 µM.

On to `COc1ccc(-c2ccnc(Nc3cccc(F)c3)n2)cc1` [Compound 119, (3-Fluoro-phenyl)-[4-(4-methoxy-phenyl)-pyrimidin-2-yl]-amine], for which the IC50 at CDK9/cyclin T1 is 0.04 µM; at GSK3β, 0.14 µM.

`O=[N+]([O-])c1cccc(Nc2nccc(-c3cc(F)ccc3F)n2)c1` [Compound 123, [4-(2,5-Difluoro-phenyl)-pyrimidin-2-yl]-(3-nitro-phenyl)-amine]: the IC50 on CDK9/cyclin T1 is 0.17 µM.
